Data taken from ChEMBL document CHEMBL6083183, “Discovery and Hit to Lead Optimization of Macrocyclic Peptides as Novel Tropomyosin Receptor Kinase A Antagonists” (J Med Chem, 2024).
The source made the active and inactive calls. No cut-off for these calls is given here. Bridge positions count the residues as written; N and C are the ends. Square brackets hold non-standard residues; d marks the D form. Peptide text beside a SMILES is read from it. NMeY = CN[C@@H](Cc1ccc(O)cc1)C(=O)O; NMeF = CN[C@@H](Cc1ccccc1)C(=O)O; NMeN = CN[C@@H](CC(N)=O)C(=O)O; NMeL = CN[C@@H](CC(C)C)C(=O)O; NMeS = CN[C@@H](CO)C(=O)O; Sar = CNCC(=O)O

Legend:
[1] = molecular target: T1, High affinity nerve growth factor receptor (Homo sapiens, UniProt P04629); assay: Inhibition of human TrkA assessed as beta-galactosidase activity pretreated with NGF followed by […] and measured after 180 mins by pathhunter assay
Rattus norvegicus = assay: Analgesic activity in iv dosed rat Brennan's incision pain model assessed as reduction in pain measured after 15 mins; format: functional, organism-based; settings: dose 0.5-1 mg/kg
[2] = Stability in human serum assessed as half-life incubated for 22 to 24 hrs by LC-MS/MS method; format: ADME, cell-free; settings: time 22-24 hrs
[3] = Stability in rat serum assessed as half-life incubated for 22 to 24 hrs by LC-MS/MS method; format: ADME, cell-free; settings: time 22-24 hrs
Homo sapiens = species: Homo sapiens; assay: Inhibition of Fc-tagged human TrkA extracellular domain to biotinylated human NGF protein-protein interaction preincubated for 1 hr followed by NGF addition and measured after 3 hrs by ELISA; settings: time 4.0 hrs
[4] = molecular target: T1, High affinity nerve growth factor receptor; assay: Binding affinity to Fc-tagged human TrkA extracellular domain by SPR method
[5] = AUC in Sprague-Dawley rat at 1 umol/kg, iv administered as cassette dose measured upto 6 hrs by LC-MS/MS method; format: ADME, organism-based; settings: in vivo, dose 1 µmol/kg
[6] = Total clearance in Sprague-Dawley rat at 1 umol/kg, iv administered as cassette dose measured upto 6 hrs by LC-MS/MS method; format: ADME, organism-based; settings: in vivo, dose 1 µmol/kg

T1 sequence (P04629 whole entry): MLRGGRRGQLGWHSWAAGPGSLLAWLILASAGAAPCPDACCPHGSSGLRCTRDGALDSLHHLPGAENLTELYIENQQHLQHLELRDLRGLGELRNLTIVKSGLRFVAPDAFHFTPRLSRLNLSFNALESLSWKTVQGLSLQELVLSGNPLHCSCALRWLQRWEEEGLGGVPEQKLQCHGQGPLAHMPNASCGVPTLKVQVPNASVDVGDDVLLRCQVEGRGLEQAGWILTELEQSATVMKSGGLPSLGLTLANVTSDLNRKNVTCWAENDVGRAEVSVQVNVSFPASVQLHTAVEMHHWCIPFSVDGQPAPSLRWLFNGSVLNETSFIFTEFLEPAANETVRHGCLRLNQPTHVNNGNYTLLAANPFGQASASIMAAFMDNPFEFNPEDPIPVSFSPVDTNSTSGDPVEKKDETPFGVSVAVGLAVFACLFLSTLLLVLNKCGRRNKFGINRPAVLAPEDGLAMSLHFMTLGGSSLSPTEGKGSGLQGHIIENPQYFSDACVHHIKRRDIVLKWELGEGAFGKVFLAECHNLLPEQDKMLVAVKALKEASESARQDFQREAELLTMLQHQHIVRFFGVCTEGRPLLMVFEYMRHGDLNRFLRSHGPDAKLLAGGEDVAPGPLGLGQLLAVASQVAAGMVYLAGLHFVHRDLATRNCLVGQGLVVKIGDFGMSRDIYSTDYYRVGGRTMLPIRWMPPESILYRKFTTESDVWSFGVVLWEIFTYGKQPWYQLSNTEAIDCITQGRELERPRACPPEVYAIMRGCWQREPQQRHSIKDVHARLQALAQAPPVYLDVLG

Which IC50 [1] does the source give for `CC(C)C[C@@H]1NC(=O)[C@H](CC(N)=O)NC(=O)CNC(=O)[C@H](Cc2ccccc2)N(C)C(=O)CNC(=O)[C@H](Cc2c[nH]c3ccccc23)NC(=O)[C@H](Cc2ccc(O)cc2)NC(=O)[C@H](CO)NC(=O)[C@H](C(C)C)NC(=O)[C@H](CO)NC(=O)[C@H](CO)N(C)C(=O)[C@H](Cc2ccccc2)NC(=O)CSC[C@@H](C(=O)NCC(N)=O)NC(=O)[C@H](Cc2c[nH]cn2)NC(=O)[C@H](CC(N)=O)NC(=O)[C@H](Cc2ccc(O)cc2)NC(=O)[C@H](Cc2c[nH]c3ccccc23)NC(=O)[C@H](C(C)C)NC1=O` ({CH2CO}-F[NMeS]SVSYWG[NMeF]GNLVWYNHCG-NH2; thioether N-18) here?
The IC50 was 13 nM.

With `CN1CC[C@]23c4c5ccc(O)c4O[C@H]2[C@@H](O)C=C[C@H]3[C@H]1C5` as the compound, how does the Activity (Rattus norvegicus) read?
The Activity was “Dose-dependent-effect”.

With `CC(C)C[C@@H]1NC(=O)[C@H](CC(N)=O)NC(=O)CNC(=O)[C@H](Cc2ccccc2)N(C)C(=O)CNC(=O)[C@H](Cc2c[nH]c3ccccc23)NC(=O)[C@H](Cc2ccc(O)cc2)NC(=O)[C@H](CO)NC(=O)[C@H](C(C)C)NC(=O)[C@H](CO)NC(=O)[C@H](CO)NC(=O)[C@H](Cc2ccccc2)NC(=O)CSC[C@@H](C(=O)NCC(N)=O)NC(=O)[C@H](Cc2cnc[nH]2)NC(=O)[C@H](CC(=O)O)NC(=O)[C@H](Cc2ccc(O)cc2)NC(=O)[C@H](Cc2ccc(O)cc2)NC(=O)[C@H](C(C)C)NC1=O` ({CH2CO}-FSSVSYWG[NMeF]GNLVYYDHCG-NH2; thioether N-18) as the compound, how does the IC50 [1] read?
Its IC50 is 24 nM.

With `CC(C)C[C@@H]1NC(=O)[C@H](CC(N)=O)NC(=O)CNC(=O)[C@H](Cc2ccccc2)N(C)C(=O)CNC(=O)[C@H](Cc2c[nH]c3ccccc23)NC(=O)[C@H](Cc2ccc(O)cc2)NC(=O)[C@H](CO)NC(=O)[C@H](C(C)C)NC(=O)[C@H](CO)NC(=O)[C@H](CO)NC(=O)[C@H](Cc2ccccc2)NC(=O)CSC[C@@H](C(=O)NCC(N)=O)NC(=O)[C@H](Cc2c[nH]cn2)NC(=O)[C@H](CC(N)=O)N(C)C(=O)[C@H](Cc2ccc(O)cc2)NC(=O)[C@H](Cc2c[nH]c3ccccc23)NC(=O)[C@H](C(C)C)NC1=O` ({CH2CO}-FSSVSYWG[NMeF]GNLVWY[NMeN]HCG-NH2; thioether N-18) as the compound, how does the IC50 [1] read?
The IC50 was 48 nM.

For `CC(C)C[C@@H]1NC(=O)[C@H](CCCNC(=N)N)NC(=O)CNC(=O)[C@H](Cc2ccccc2)N(C)C(=O)CNC(=O)[C@H](Cc2c[nH]c3ccccc23)NC(=O)[C@H](Cc2ccc(O)cc2)NC(=O)[C@H](CO)NC(=O)[C@H](C(C)C)NC(=O)[C@H](CO)NC(=O)[C@H](CCCCN)NC(=O)[C@H](Cc2ccccc2)NC(=O)CSC[C@@H](C(=O)N(C)CC(N)=O)NC(=O)[C@H](Cc2c[nH]cn2)NC(=O)[C@H](CC(N)=O)NC(=O)[C@H](Cc2ccc(O)cc2)NC(=O)[C@H](Cc2ccc(O)cc2)NC(=O)[C@H](CCCCN)NC1=O` ({CH2CO}-FKSVSYWG[NMeF]GRLKYYNHC[Sar]-NH2; thioether N-18), which IC50 [1] is on record?
Its IC50 is 22 nM.

And the half-life [2]?
Its half-life is 2.9 h.

And the half-life [3]?
Its half-life is 4.5 h.

Which IC50 [1] does the source give for `CC(C)C[C@@H]1NC(=O)[C@H](CC(N)=O)NC(=O)CNC(=O)[C@H](Cc2ccccc2)N(C)C(=O)CNC(=O)[C@H](Cc2c[nH]c3ccccc23)NC(=O)[C@H](Cc2ccc(O)cc2)NC(=O)[C@H](C)NC(=O)[C@H](C(C)C)NC(=O)[C@H](CO)NC(=O)[C@H](CO)NC(=O)[C@H](Cc2ccccc2)NC(=O)CSC[C@@H](C(=O)NCC(N)=O)NC(=O)[C@H](Cc2c[nH]cn2)NC(=O)[C@H](CC(N)=O)NC(=O)[C@H](Cc2ccc(O)cc2)NC(=O)[C@H](Cc2ccc(O)cc2)NC(=O)[C@H](C(C)C)NC1=O` ({CH2CO}-FSSVAYWG[NMeF]GNLVYYNHCG-NH2; thioether N-18) here?
The IC50 was 26 nM.

With `CC(C)C[C@@H]1NC(=O)[C@H](CC(N)=O)NC(=O)CNC(=O)[C@H](Cc2ccccc2)N(C)C(=O)CNC(=O)[C@H](Cc2c[nH]c3ccccc23)NC(=O)[C@H](Cc2ccc(O)cc2)NC(=O)[C@H](CO)NC(=O)[C@H](C(C)C)NC(=O)[C@H](CO)NC(=O)[C@H](CO)NC(=O)[C@H](Cc2ccccc2)NC(=O)CSC[C@@H](C(=O)NCC(N)=O)NC(=O)[C@H](Cc2c[nH]cn2)NC(=O)[C@H](CO)NC(=O)[C@H](Cc2ccc(O)cc2)NC(=O)[C@H](Cc2ccc(O)cc2)NC(=O)[C@H](C(C)C)NC1=O` ({CH2CO}-FSSVSYWG[NMeF]GNLVYYSHCG-NH2; thioether N-18) as the compound, how does the IC50 [1] read?
The IC50 was 186 nM.

Which IC50 [1] does the source give for `CC(C)C[C@@H]1NC(=O)[C@H](CC(N)=O)NC(=O)CNC(=O)[C@H](Cc2ccccc2)N(C)C(=O)CNC(=O)[C@H](Cc2c[nH]c3ccccc23)NC(=O)[C@H](Cc2ccc(O)cc2)NC(=O)[C@H](CO)NC(=O)[C@H](C(C)C)NC(=O)[C@H](CO)NC(=O)[C@H](CO)NC(=O)[C@H](Cc2ccccc2)NC(=O)CSC[C@@H](C(=O)N(C)CC(N)=O)NC(=O)[C@H](Cc2c[nH]cn2)NC(=O)[C@H](CC(N)=O)NC(=O)[C@H](Cc2ccc(O)cc2)NC(=O)[C@H](Cc2c[nH]c3ccccc23)NC(=O)[C@H](C(C)C)NC1=O` ({CH2CO}-FSSVSYWG[NMeF]GNLVWYNHC[Sar]-NH2; thioether N-18) here?
The IC50 was 15 nM.

With `CC(C)C[C@@H]1NC(=O)[C@H](CC(N)=O)NC(=O)CNC(=O)[C@H](Cc2ccccc2)N(C)C(=O)CNC(=O)[C@H](Cc2c[nH]c3ccccc23)NC(=O)[C@H](Cc2ccc(O)cc2)NC(=O)[C@H](CO)NC(=O)[C@H](C(C)C)NC(=O)[C@H](CO)NC(=O)[C@H](CO)NC(=O)[C@H](Cc2ccccc2)NC(=O)CSC[C@@H](C(=O)NCC(N)=O)NC(=O)[C@H](Cc2c[nH]cn2)NC(=O)[C@H](CC(N)=O)NC(=O)[C@H](Cc2ccc(O)cc2)NC(=O)[C@H](Cc2ccc(O)cc2)NC(=O)[C@H](C(C)C)NC1=O` ({CH2CO}-FSSVSYWG[NMeF]GNLVYYNHCG-NH2; thioether N-18) as the compound, how does the IC50 [1] read?
The IC50 was 6 nM.

With `CC(C)C[C@@H]1NC(=O)[C@H](CC(N)=O)NC(=O)CNC(=O)[C@H](Cc2ccccc2)N(C)C(=O)CNC(=O)[C@H](Cc2c[nH]c3ccccc23)NC(=O)[C@H](Cc2ccc(O)cc2)N(C)C(=O)[C@H](CO)NC(=O)[C@H](C(C)C)NC(=O)[C@H](CO)NC(=O)[C@H](CO)NC(=O)[C@H](Cc2ccccc2)NC(=O)CSC[C@@H](C(=O)NCC(N)=O)NC(=O)[C@H](Cc2c[nH]cn2)NC(=O)[C@H](CC(N)=O)NC(=O)[C@H](Cc2ccc(O)cc2)NC(=O)[C@H](Cc2c[nH]c3ccccc23)NC(=O)[C@H](C(C)C)NC1=O` ({CH2CO}-FSSVS[NMeY]WG[NMeF]GNLVWYNHCG-NH2; thioether N-18) as the compound, how does the IC50 [1] read?
Its IC50 is 22 nM.

With `CC(C)C[C@@H]1NC(=O)[C@H](CC(N)=O)NC(=O)CNC(=O)[C@H](Cc2ccccc2)N(C)C(=O)CNC(=O)[C@H](Cc2c[nH]c3ccccc23)NC(=O)[C@H](Cc2ccc(O)cc2)NC(=O)[C@H](CO)NC(=O)[C@H](C(C)C)NC(=O)[C@H](CO)NC(=O)[C@H](CO)NC(=O)[C@H](Cc2ccccc2)NC(=O)CSC[C@@H](C(=O)NCC(N)=O)NC(=O)[C@H](Cc2c[nH]cn2)NC(=O)[C@H](CC(N)=O)NC(=O)[C@H](Cc2ccc(O)cc2)NC(=O)[C@H](Cc2c[nH]c3ccccc23)NC(=O)[C@H](C(C)C)NC1=O` ({CH2CO}-FSSVSYWG[NMeF]GNLVWYNHCG-NH2; thioether N-18) as the compound, how does the IC50 [1] read?
The IC50 was 41 nM.

With `CC(C)C[C@H]1C(=O)N[C@@H](C(C)C)C(=O)N[C@@H](Cc2c[nH]c3ccccc23)C(=O)N[C@@H](Cc2ccc(O)cc2)C(=O)N[C@@H](CC(N)=O)C(=O)N[C@@H](Cc2c[nH]cn2)C(=O)N[C@H](C(=O)NCC(N)=O)CSCC(=O)N[C@@H](Cc2ccccc2)C(=O)N[C@@H](CO)C(=O)N[C@@H](CO)C(=O)N[C@@H](C(C)C)C(=O)N[C@@H](CO)C(=O)N[C@@H](Cc2ccc(O)cc2)C(=O)N[C@@H](Cc2c[nH]c3ccccc23)C(=O)NCC(=O)N(C)[C@@H](Cc2ccccc2)C(=O)NCC(=O)N[C@@H](CC(N)=O)C(=O)N1C` ({CH2CO}-FSSVSYWG[NMeF]GN[NMeL]VWYNHCG-NH2; thioether N-18) as the compound, how does the IC50 [1] read?
Its IC50 is 81 nM.

For `CC[C@H](C)[C@@H]1NC(=O)CNC(=O)[C@H](Cc2ccc(O)cc2)NC(=O)[C@H](Cc2ccccc2)NC(=O)CNC(=O)[C@H](Cc2c[nH]cn2)NC(=O)[C@@H]2CCCN2C(=O)[C@H](Cc2ccc(O)cc2)NC(=O)[C@H](CC(C)C)NC(=O)[C@H](Cc2ccccc2)NC(=O)[C@H](Cc2ccccc2)NC(=O)CSC[C@@H](C(=O)NCC(N)=O)NC(=O)[C@H](C(C)C)NC1=O` ({CH2CO}-FFLYPHGFYGIVCG-NH2; thioether N-13), which inhibition (Homo sapiens) is on record?
Its inhibition is “inactive”.

What about the Kd [4] of the same compound?
Its Kd is 8.5 nM.

Which IC50 [1] does the source give for `CC(C)C[C@@H]1NC(=O)[C@H](CCCNC(=N)N)NC(=O)CNC(=O)[C@H](Cc2ccccc2)N(C)C(=O)CNC(=O)[C@H](Cc2c[nH]c3ccccc23)NC(=O)[C@H](Cc2ccc(O)cc2)NC(=O)[C@H](CCC(=O)O)NC(=O)[C@H](C(C)C)NC(=O)[C@H](CO)NC(=O)[C@H](CCCCN)NC(=O)[C@H](Cc2ccccc2)NC(=O)CSC[C@@H](C(=O)N(C)CC(N)=O)NC(=O)[C@H](Cc2c[nH]cn2)NC(=O)[C@H](CC(=O)O)NC(=O)[C@H](Cc2ccc(O)cc2)NC(=O)[C@H](Cc2ccc(O)cc2)NC(=O)[C@H](CCCCN)NC1=O` ({CH2CO}-FKSVEYWG[NMeF]GRLKYYDHC[Sar]-NH2; thioether N-18) here?
The IC50 was 35 nM.

What about the half-life [2] of the same compound?
Its half-life is 2.5 h.

And the half-life [3]?
Its half-life is 32 h.

What does the source list for `CC[C@H](C)[C@@H]1NC(=O)CNC(=O)[C@H](Cc2ccccc2)N(C)C(=O)CNC(=O)[C@H](Cc2c[nH]c3ccccc23)NC(=O)[C@H](Cc2ccc(O)cc2)NC(=O)[C@H](CCC(=O)O)NC(=O)[C@H](C(C)C)NC(=O)[C@H](CO)NC(=O)[C@H](CO)NC(=O)[C@H](Cc2ccccc2)NC(=O)CSC[C@@H](C(=O)NCC(N)=O)NC(=O)[C@H](Cc2cnc[nH]2)NC(=O)[C@H](CC(=O)O)NC(=O)[C@H](Cc2ccc(O)cc2)NC(=O)[C@H](Cc2c[nH]c3ccccc23)NC(=O)[C@H](CCC(=O)O)NC(=O)[C@H](CC(C)C)NC1=O` ({CH2CO}-FSSVEYWG[NMeF]GILEWYDHCG-NH2; thioether N-18)?
AUC at 6 h [5]: 0.786 µM·h; clearance [6]: 21.3 mL/min/kg; IC50 [1]: 34 nM; half-life [2]: > 72 h; half-life [3]: > 72 h
